Series [1] is filed under the species Homo sapiens. The series can be described thus: Selectivity ratio of IC50 for human TG1 to IC50 for human TG2.
The species entered for series [2] is Homo sapiens. Put plainly: Selectivity ratio of IC50 for human TG3 to IC50 for human TG2.
Series [3] is filed under the species Homo sapiens. The series can be described thus: Selectivity ratio of IC50 for human F13a to IC50 for human TG2.
For series [4], the species on record is Homo sapiens. Put plainly: Selectivity ratio of IC50 for human TG6 to IC50 for human TG2.
Series [5] is described as follows: Metabolic stability in Wistar rat blood plasma after 15 mins by HPLC analysis. It is filed as ADME, cell-free. The following applies: read-out: Stability.
Series [6] in a line: Metabolic stability in Wistar rat blood plasma after 45 mins by HPLC analysis. Type of series: ADME, cell-free. As to conditions: read-out: Stability.
In series [7] the test system is Mus musculus. Put plainly: Antihypertensive activity in C57BL/6 mouse angiotensin 2-induced hypertensive nephrosclerosis model assessed as reduction in collagen deposition in blood vessels at 25 mg/kg/day administered sc with angiotensin 2 for 14 days by Sirius red/collagen staining based assay. It is filed as functional. The following applies: C57BL/6, sc, 336 h.

In series [8] the target is T1, Protein-glutamine gamma-glutamyltransferase (Homo sapiens, UniProt P21980).
T1 sequence (P21980 whole entry): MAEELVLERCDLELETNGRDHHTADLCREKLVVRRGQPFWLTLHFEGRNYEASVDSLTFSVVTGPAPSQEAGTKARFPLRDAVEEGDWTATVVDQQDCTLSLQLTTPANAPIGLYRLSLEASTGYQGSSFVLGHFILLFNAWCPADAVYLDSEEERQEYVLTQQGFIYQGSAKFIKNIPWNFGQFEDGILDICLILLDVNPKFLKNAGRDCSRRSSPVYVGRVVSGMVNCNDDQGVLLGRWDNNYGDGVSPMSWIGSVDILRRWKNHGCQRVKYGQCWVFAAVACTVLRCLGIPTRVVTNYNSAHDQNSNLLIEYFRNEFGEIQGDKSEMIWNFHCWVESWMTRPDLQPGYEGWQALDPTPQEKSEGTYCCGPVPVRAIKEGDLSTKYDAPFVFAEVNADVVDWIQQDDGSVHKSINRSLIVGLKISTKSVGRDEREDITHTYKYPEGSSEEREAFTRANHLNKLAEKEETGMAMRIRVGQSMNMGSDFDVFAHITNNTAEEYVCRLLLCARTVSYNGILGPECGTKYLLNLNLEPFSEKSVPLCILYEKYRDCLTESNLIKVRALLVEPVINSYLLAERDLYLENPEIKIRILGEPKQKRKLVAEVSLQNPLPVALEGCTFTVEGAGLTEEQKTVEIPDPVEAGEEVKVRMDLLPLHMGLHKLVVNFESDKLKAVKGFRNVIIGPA
Put plainly: Inhibition of recombinant human TG2 by fluorescence assay.

In series [9] the test system is Mus musculus. The series can be described thus: Antihypertensive activity in C57BL/6 mouse angiotensin 2-induced hypertensive nephrosclerosis model assessed as reduction in collagen deposition in kidney at 25 mg/kg/day administered sc with angiotensin 2 for 14 days by Sirius red/collagen staining based assay. Type of series: functional. The following applies: C57BL/6, sc, 336 h.

Take `CCC(CC)CNC(=O)Cn1cccc(NC(=O)[C@H](CC/C=C/C(=O)OC)NC(=O)c2cncn2C)c1=O`: the Ratio IC50 in the series listed under Homo sapiens [1], in the series filed under Homo sapiens [2], in the series filed under Homo sapiens [3] and in the series filed under Homo sapiens [4] was above 100 each time.
`C=CC(=O)NCCCC[C@H](NC(=O)Cc1ccccc1)C(=O)N1CCN(c2cccc(C)n2)CC1`: the remaining at 0.25 h in series [5] is 65%. The remaining at 0.75 h in [6] turned out to be 29%.
By inhibition in vivo is commonly meant the share of the control response that was lost under treatment. The IC50 is the concentration that gives 50% inhibition. `C=CC(=O)NCC(=O)N1CCN(S(=O)(=O)c2cccc3c(N(C)C)cccc23)CC1`: the inhibition in vivo at 25 mg/kg/day in the series on Mus musculus [7] came to 45%; in the series with Mus musculus [9] it was 40%. Also, the IC50 in series [8] stood at 6 nM.

Values taken from ChEMBL document CHEMBL4024703, “Recent Progress in the Development of Transglutaminase 2 (TGase2) Inhibitors” (J Med Chem, 2017).
